Test results as given in patent publication US11306098B2, “Substituted pyrrolo[1,2-a]pyrazines and pyrrolo[1,2-a][1,4]diazepines as TREX1 inhibitors” (VENENUM BIODESIGN, LLC, priority 2019, dated 2022).
Counter-ions that a name gives are not always drawn.

Key:
murine TREX1 = murine TREX1 (Mus musculus (Mouse), UniProt Q91XB0); assay: TREX1 Exonuclease Assay (murine enzyme); format: biochemical; settings: murine TREX1 1 nM, FAM/BHQ1-labeled DNA oligonucleotide
Procedure: (§1) The TREX1 Exonuclease assay is an exemplary in vitro assay for measuring the activity of the TREX1 inhibitors of the present invention. In this assay, TREX1 exonuclease activity was evaluated by measuring the increase in fluorescence resulting from TREX1-catalyzed removal of a quencher from the 3′ end of a FAM-labeled DNA oligonucleotide (5′FAM-CCA CGA GAG CGT-BHQ1-3′). The assay was conducted using Wild Type (WT) human or murine TREX1 enzyme constructs corresponding to amino acids 55-297 of UniProt ID Q9NSU2-1 (SEQ ID NO: 1), or amino acids 1-242 of UniProt ID Q91XB0-1 (SEQ ID NO: 2), respectively. See, e.g., Example A.
(§2) For human TREX1, the nucleotide sequence of the gene construct was codon optimized for expression in the bacterial host. The sequence was incorporated into the pMAL-c5e vector (NEB) downstream of a solubility-promoting MBP (maltose binding protein) fusion partner. The fusion protein product was expressed in E. coli strain BL21 (DE3) (Millipore) and purified in a series of chromatographic steps. Initial steps were conducted using a dextrin sepharose affinity column followed by a Q-sepharose ion exchange column (both GE Healthcare). After the second column the MBP partner was removed by incubation with enterokinase (NEB). Further purification was carried out with the second application of a Q-sepharose column followed by a Superdex 75 (GE Healthcare) size exclusion column. Finally, a heparin sepharose column (GE Healthcare) was applied to remove contaminating nucleotides. Similar methods were used in the preparation of the murine TREX1 enzyme and are described in Example B set forth below.
(§3) To evaluate the effect of compounds on TREX1 activity, test compounds were serially diluted (11-point, 3-fold) from 10 mM stock solutions and delivered to 384-well low-volume assay plates in 80 nL DMSO using an acoustic dispenser. Next, 4 μL of human TREX1 (0.5 nM), or murine TREX1 (1 nM), diluted in assay buffer (20 mM Tris pH 7.5, 5 mM MgCl2, 100 μg/mL BSA, 0.002% Triton X-100, 2 mM DTT), was added to the assay plate. After incubating for 30 minutes, 4 μL of labeled DNA oligonucleotide (500 nM) in assay buffer was added to initiate TREX1 exonuclease activity. The reaction was allowed to proceed for 45 minutes at room temperature prior to the addition of 4 μL of 150 mM EDTA to halt TREX1 activity. Assay plates were equilibrated for an additional 30 minutes and read on an EnVision Plate Reader (Perkin Elmer) to measure fluorescence emission at 535 nm following excitation at 485 nm. Fluorescence was plotted as a function of log molar compound concentration and fit to four-parameter dose-response equation to determine compound IC50.

human TREX1 = human TREX1 (Homo sapiens (Human), UniProt Q9NSU2); assay: TREX1 Exonuclease Assay (human enzyme); format: biochemical; settings: human TREX1 0.5 nM, FAM/BHQ1-labeled DNA oligonucleotide
Chain of human TREX1 (Q9NSU2 1-242): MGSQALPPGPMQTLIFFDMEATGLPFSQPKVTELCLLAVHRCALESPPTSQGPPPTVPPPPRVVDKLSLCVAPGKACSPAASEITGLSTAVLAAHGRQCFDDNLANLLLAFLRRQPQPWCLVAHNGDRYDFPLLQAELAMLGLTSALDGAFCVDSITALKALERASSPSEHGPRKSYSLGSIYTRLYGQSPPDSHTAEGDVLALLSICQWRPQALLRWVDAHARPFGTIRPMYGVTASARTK
Procedure: as §1, §2, §3

Chain of murine TREX1 (Q91XB0 1-242): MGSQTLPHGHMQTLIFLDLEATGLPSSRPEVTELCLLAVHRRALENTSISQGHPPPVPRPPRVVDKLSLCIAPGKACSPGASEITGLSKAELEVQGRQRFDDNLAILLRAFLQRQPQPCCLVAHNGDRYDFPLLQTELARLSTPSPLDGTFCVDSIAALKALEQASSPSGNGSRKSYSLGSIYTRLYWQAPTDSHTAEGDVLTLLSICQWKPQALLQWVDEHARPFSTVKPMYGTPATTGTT

Compound	IC50 (murine TREX1)	IC50 (human TREX1)
N[C@@H]1C[C@H]2C(=O)N([C@H](CCC(=O)O)C(=O)NCc3ccc(C(F)(F)F)cc3)CCC(CCc3ccccc3)N2C1 (single isomer, unassigned) [Example 2A]	10 to 100 µM	10 to 100 µM
C[C@H](C(=O)NCc1ccc(C(F)(F)F)cc1)N1CCC(CCc2ccccc2)N2C[C@H](N)C[C@H]2C1=O (stereo partly shown) [Example 5]	< 1 µM	< 1 µM
CC(C)C[C@H](C(=O)NCc1ccc(C(F)(F)F)cc1)N1CCC(CCc2ccccc2)N2C[C@H](N)C[C@H]2C1=O (stereo partly shown) [Example 6]	< 1 µM	< 1 µM
CC(C)C[C@H](C(=O)N(C)Cc1ccc(C(F)(F)F)cc1)N1CCC(CCc2ccccc2)N2C[C@H](N)C[C@H]2C1=O (stereo partly shown) [Example 7]	1 to 9.99 µM	1 to 9.99 µM
CC(C)C[C@H](C(=O)NCc1ccccc1)N1CCC(CCc2ccccc2)N2C[C@H](N)C[C@H]2C1=O (stereo partly shown) [Example 8]	10 to 100 µM	1 to 9.99 µM
Cc1ccc(CNC(=O)[C@@H](CC(C)C)N2CCC(CCc3ccccc3)N3C[C@H](N)C[C@H]3C2=O)cc1 (stereo partly shown) [Example 9]	1 to 9.99 µM	1 to 9.99 µM
CC(C)C[C@H](C(=O)NCc1ccc(Cl)c(Cl)c1)N1CCC(Cc2ccccc2)N2C[C@H](N)C[C@H]2C1=O (stereo partly shown) [Example 10]	1 to 9.99 µM	1 to 9.99 µM
CC(C)C[C@H](C(=O)NCc1ccc(Cl)c(Cl)c1)N1CCC(CCc2ccc(Cl)cc2)N2C[C@H](N)C[C@H]2C1=O (stereo partly shown) [Example 11]	1 to 9.99 µM	< 1 µM
CC(C)C[C@H](C(=O)NCC1CCCCC1)N1CCC(CCc2ccccc2)N2C[C@H](N)C[C@H]2C1=O (stereo partly shown) [Example 12]	10 to 100 µM	10 to 100 µM
CC(C)C[C@H](C(=O)NCc1ccc(Cl)c(Cl)c1)N1CCC(C)N2C[C@H](N)C[C@H]2C1=O (stereo partly shown) [Example 13]	10 to 100 µM	10 to 100 µM
N[C@@H]1C[C@H]2C(=O)N([C@H](CCC(=O)O)C(=O)NCc3ccc(Cl)c(Cl)c3)CCC(CCc3ccccc3)N2C1 (stereo partly shown) [Example 14A]	10 to 100 µM	10 to 100 µM
N[C@@H]1C[C@H]2C(=O)N([C@H](CCC(=O)O)C(=O)NCc3ccc(Cl)c(Cl)c3)CCC(COc3ccccc3)N2C1 (stereo partly shown) [Example 17]	< 1 µM	< 1 µM
CC(C)C[C@H](C(=O)NCc1ccc(Cl)c(Cl)c1)N1CCC(CSc2ccccc2)N2C[C@H](N)C[C@H]2C1=O (stereo partly shown) [Example 18]	< 1 µM	< 1 µM
CC(C)C[C@H](C(=O)NCc1ccc(Cl)c(Cl)c1)N1CCC(COc2ccccc2)N2C[C@H](N)C[C@H]2C1=O (stereo partly shown) [Example 19]	1 to 9.99 µM	< 1 µM
CC(=O)N[C@@H]1C[C@H]2C(=O)N([C@H](CC(C)C)C(=O)NCc3ccc(Cl)c(Cl)c3)CCC(CCc3ccccc3)N2C1 (stereo partly drawn) [Example 20, (2R)-2-((8R,9aS)-8-acetamido-1-oxo-5-phenethylhexahydro-1H-pyrrolo[1,2-a][1,4]diazepin-2(3H)-yl)-N-(3,4-dichlorobenzyl)-4-methylpentanamide HCl]	10 to 100 µM	1 to 9.99 µM
CC(C)C[C@H](C(=O)NCc1ccc(Cl)c(Cl)c1)N1CCC(CCc2ccccc2)N2C[C@H](N(C)C)C[C@H]2C1=O (stereo partly drawn) [Example 21, (2R)—N-(3,4-dichlorobenzyl)-2-((8R,9aS)-8-(dimethylamino)-1-oxo-5-phenethylhexahydro-1H-pyrrolo[1,2-a][1,4]diazepin-2(3H)-yl)-4-methylpentanamide HCl]	> 100 µM	10 to 100 µM
CC(C)C[C@H](C(=O)NCc1ccc(Cl)c(Cl)c1)N1CC(CCc2ccccc2)N2C[C@H](N)C[C@H]2C1=O (stereo partly drawn) [Example 22, (2R)-2-((7R,8aS)-7-amino-1-oxo-4-phenethylhexahydropyrrolo[1,2-a]pyrazin-2(1H)-yl)-N-(3,4-dichlorobenzyl)-4-methylpentanamide.HCl]	10 to 100 µM	10 to 100 µM
CC(C)C[C@H](C(=O)NCCc1ccccc1)N1CCC(CCc2ccccc2)N2C[C@H](N)C[C@H]2C1=O (stereo partly shown) [Example 23]	10 to 100 µM	1 to 9.99 µM
CC(C)C[C@H](C(=O)N[C@H](C)c1ccccc1)N1CCC(CCc2ccccc2)N2C[C@H](N)C[C@H]2C1=O (stereo partly shown) [Example 24]	10 to 100 µM	10 to 100 µM

Compound	IC50 (murine TREX1)	IC50 (human TREX1)
CC(C)C[C@H](C(=O)N[C@@H](C)c1ccccc1)N1CCC(CCc2ccccc2)N2C[C@H](N)C[C@H]2C1=O (stereo partly shown) [Example 25]	10 to 100 µM	10 to 100 µM
CC(C)C[C@H](C(=O)NCc1cccc(Cl)c1)N1CCC(CCc2ccccc2)N2C[C@H](N)C[C@H]2C1=O (stereo partly shown) [Example 26]	1 to 9.99 µM	< 1 µM
CC(C)C[C@H](C(=O)NCc1ccccc1Cl)N1CCC(CCc2ccccc2)N2C[C@H](N)C[C@H]2C1=O (stereo partly shown) [Example 27]	10 to 100 µM	1 to 9.99 µM
CC(C)C[C@H](C(=O)NCc1cnccn1)N1CCC(CCc2ccccc2)N2C[C@H](N)C[C@H]2C1=O (stereo partly shown) [Example 28]	10 to 100 µM	1 to 9.99 µM
CC(C)C[C@H](C(=O)NCc1cscn1)N1CCC(CCc2ccccc2)N2C[C@H](N)C[C@H]2C1=O (stereo partly shown) [Example 30]	10 to 100 µM	1 to 9.99 µM
CC(C)C[C@H](C(=O)NCc1ccc(Cl)cc1Cl)N1CCC(CCc2ccccc2)N2C[C@H](N)C[C@H]2C1=O (stereo partly shown) [Example 31]	1 to 9.99 µM	< 1 µM
CC(C)C[C@H](C(=O)NCc1ccc(C#N)cc1)N1CCC(CCc2ccccc2)N2C[C@H](N)C[C@H]2C1=O (stereo partly shown) [Example 32]	10 to 100 µM	1 to 9.99 µM
CC(C)C[C@H](C(=O)NCc1cc(Cl)cc(Cl)c1)N1CCC(CCc2ccccc2)N2C[C@H](N)C[C@H]2C1=O (stereo partly shown) [Example 33]	1 to 9.99 µM	< 1 µM
CC(C)C[C@H](C(=O)NCc1ccc(F)cc1)N1CCC(CCc2ccccc2)N2C[C@H](N)C[C@H]2C1=O (stereo partly shown) [Example 34]	1 to 9.99 µM	< 1 µM
CC(C)C[C@H](C(=O)NS(=O)(=O)c1ccccc1)N1CCC(CCc2ccccc2)N2C[C@H](N)C[C@H]2C1=O (stereo partly shown) [Example 35]	1 to 9.99 µM	1 to 9.99 µM
CC(C)C[C@H](C(=O)NCCc1ccc(Cl)c(Cl)c1)N1CCC(CCc2ccccc2)N2C[C@H](N)C[C@H]2C1=O (stereo partly shown) [Example 37]	1 to 9.99 µM	< 1 µM
N[C@@H]1C[C@H]2C(=O)N([C@H](CCc3nsc(=O)[nH]3)C(=O)NCc3ccc(Cl)c(Cl)c3)CCC(CCc3ccccc3)N2C1 (stereo partly shown) [Example 38]	< 1 µM	< 1 µM
CC(C)C[C@H](C(=O)NS(=O)(=O)c1ccc(Cl)c(Cl)c1)N1CCC(CCc2ccccc2)N2C[C@H](N)C[C@H]2C1=O (stereo partly shown) [Example 39]	< 1 µM	< 1 µM
CCC[C@H](CNS(=O)(=O)c1ccc(Cl)c(Cl)c1)N1CCC(CCc2ccccc2)N2C[C@H](N)C[C@H]2C1=O (stereo partly shown) [Example 40]	1 to 9.99 µM	< 1 µM
CC(C)C[C@H](C(=O)NCc1ccc(Cl)c(Cl)c1)N1CCC(CS(=O)(=O)c2ccccc2)N2C[C@H](N)C[C@H]2C1=O (stereo partly shown) [Example 41]	10 to 100 µM	1 to 9.99 µM
N#CCC[C@H](C(=O)NCc1ccc(Cl)c(Cl)c1)N1CCC(CCc2ccccc2)N2C[C@H](N)C[C@H]2C1=O (stereo partly shown) [Example 45]	< 1 µM	< 1 µM
CC(C)C[C@H](C(=O)NCc1ccc(Cl)cc1)N1CCC(CCc2ccccc2)N2C[C@H](N)C[C@H]2C1=O (stereo partly shown) [Example 46]	1 to 9.99 µM	< 1 µM
CC(C)C[C@H](C(=O)NCc1ccc(Cl)c(Cl)c1)N1CCC(CCc2ccccc2)N(CCN)CC1=O (stereo partly shown) [Example 47]	10 to 100 µM	1 to 9.99 µM
Cc1nnc(CC[C@H](C(=O)NCc2ccc(Cl)c(Cl)c2)N2CCC(CCc3ccccc3)N3C[C@H](N)C[C@H]3C2=O)[nH]1 (stereo partly shown) [Example 48]	< 1 µM	< 1 µM
